{
  "source": "patent US20100310579A1",
  "about": "“METHOD FOR INHIBITING ANGIOGENESIS OR FOR TREATMENT OF CANCER” (Faron Ventures Oy, priority 2007, published 2010)",
  "type_in_all_cases": "in vivo",
  "key": {"[1]": {"tested_on": "Luciferase-containing B16 melanoma cells", "test": "B16 melanoma tumor growth in mice (bioluminescence imaging, tumor volume)", "experimental": "In the melanoma model, age- and sex-matched VAP-1 deficient and wt C57/B16 mice were used (Stolen, C. M., F. Marttila-Ichihara, K. Koskinen, G. G. Yegutkin, R. Turja, P. Bono, M. Skurnik, A. Hanninen, S. Jalkanen, and M. Salmi. 2005. Immunity 22:105-115). Luciferase-containing B16 melanoma cells were purchased from Xenogen. Tumor cells (4×10^5 in 200 μl) were injected subcutaneously into the flanks of isoflurane anesthesized mice. Immediately thereafter, a substrate for the luciferase (D-luciferin sodium salt, Synchem, Kassel, Germany; 150 mg/kg i.p.) was injected, and 10 min later the light generated was recorded using bioluminescence imaging (IVIS 50 workstation, Xenogen). The signal intensities were quantified as the photon counts using the Living Image software (Xenogen). […] The growth of tumors was then followed for 10 d, and at the indicated time points, the animals were re-subjected to the bioluminescence imaging. The diameter of the tumor was also measured using an electronic caliber (Mitutoyo, Japan). The volume of the tumor was approximated using the formula: 0.5×(longest diameter)×(shortest diameter). In the lymphoma model, EL-4 cells were injected into the abdominal area (10×10^6 cells/mouse in 200 μl of RPMI1640. tumor growth was followed using the electronic caliber.\n(§1) The tumor model was established as above. The animals were treated every second day with anti-VAP-1 mAb (7-106+7-88, 100 μg each/mouse) or with a negative control mAb HB151 (200 μg/mouse, ip) (Merinen, M., H. Irjala, M. Salmi, I. Jaakkola, A. Hanninen, and S. Jalkanen. 2005. e. Am. J. Pathol. 166:793-800). The antibodies were produced in serum and BSA-free medium, concentrated, and dialyzed against PBS. Another group of mice were treated with the VAP-1 inhibitor SZE 5302 (50 mg/kg, ip, daily) or with the vehicle (saline) (Koskinen, K., P. J. Vainio, D. J. Smith, M. Pihlavisto, S. Yla-Herttuala, S. Jalkanen, and M. Salmi. 2004. Blood 103:3388-3395). The growth of the tumor was then followed using bioluminescence imaging or volume measurements as described above."}, "[2]": {"tested_on": "CD31-positive vessels in melanoma tumors", "test": "CD31-positive vessels in melanoma tumors (immunohistochemistry, neoangiogenesis)", "conditions": "melanoma tumors resected d10, treated vs control mice, FIG. 3", "experimental": "as §1\nAt the end of the experiment, tumors were excised from the mice and processed for immunohistochemical staining. Anti-mouse CD31 mAb (MEC13.3, IHC formula, 1:300 dilution; Pharmingen) and a negative control mAb (9B5) were used for indirect immunoperoxidase stainings. The sections were counterstained with hematoxylin-eosin, and mounted in Depex. In certain cases, formalin-fixed, paraffin embedded sections were stained with HE. The CD31-positive vessels or vessels in HE-stained sections were enumerated by counting the number of vessels in the whole tumor area using a 400× magnification. […]"}, "[3]": {"tested_on": "myeloid-derived suppressor cells (MDSC) in melanoma tumors", "test": "CD11b-positive myeloid-derived suppressor cells in melanoma tumors (microscopic counting)", "conditions": "wt mice treated with inhibitor vs vehicle, FIG. 6", "text": "FIG. 6. VAP-1 selectively supports recruitment of pro-angiogenic myeloid-derived suppressor cells in melanoma tumors. CD11b-positive cells were quantified by microscopic counting in wt and VAP-1 deficient mice and in wt treated with vehicle or SZE5302 inhibitor. Data (mean±SEM) are from 9 mice per group, ** p<0.01.\nAt the end of the experiment, tumors were excised from the mice and processed for immunohistochemical staining. Anti-mouse CD31 mAb (MEC13.3, IHC formula, 1:300 dilution; Pharmingen) and a negative control mAb (9B5) were used for indirect immunoperoxidase stainings. The sections were counterstained with hematoxylin-eosin, and mounted in Depex. In certain cases, formalin-fixed, paraffin embedded sections were stained with HE. The CD31-positive vessels or vessels in HE-stained sections were enumerated by counting the number of vessels in the whole tumor area using a 400× magnification. Sections were also stained with CD11b and Gr-1 antibodies."}, "EL-4 lymphoma cells": {"tested_on": "EL-4 lymphoma cells", "test": "EL-4 lymphoma growth in mice (tumor volume)", "conditions": "wt mice, s.c. EL-4 lymphoma, treated vs control, FIG. 5b", "experimental": "FIG. 5. Defective migration of myeloid-derived suppressor cells (MDSC), angiogenesis and growth of lymphoma in VAP-1 deficient mice (a, b). EL-4 lymphoma cells were injected subcutaneously into (a) wt and VAP-1 deficient mice and (b) control and SZE5302 treated mice, and the growth of the lymphomas (volume) was measured kinetically. VAP-1 activity in control and SZE5302 treated mice was measured using enzyme assay (c) Immunohistochemical stainings of (d) VAP-1 and (e) CD31 expression in tumor vessels in EL-4 lymphoma grown in wt and VAP-1 −/− mice. Some positive vessels are pointed out by arrows. Lymphoma cells also express low levels of CD31. Bar 50 μm. The numbers of (f) CD31 positive vessels and (g) CD11b positive cells was determined using immunohistochemistry. […]\nIn the melanoma model, age- and sex-matched VAP-1 deficient and wt C57/B16 mice were used (Stolen, C. M., F. Marttila-Ichihara, K. Koskinen, G. G. Yegutkin, R. Turja, P. Bono, M. Skurnik, A. Hanninen, S. Jalkanen, and M. Salmi. 2005. Immunity 22:105-115). […] Immediately thereafter, a substrate for the luciferase (D-luciferin sodium salt, Synchem, Kassel, Germany; 150 mg/kg i.p.) was injected, and 10 min later the light generated was recorded using bioluminescence imaging (IVIS 50 workstation, Xenogen). The signal intensities were quantified as the photon counts using the Living Image software (Xenogen). […]"}},
  "data": [
    {"smiles": "CN(N)[C@H]1Cc2ccccc2[C@@H]1O", "note": "[SZE5302]", "values": [
      {"measurement": "tumor volume (physical measurement)", "setting": "[1]; day 7, wt mice, B16 melanoma, 50 mg/kg ip daily", "value": "significant reduction"},
      {"measurement": "melanoma size", "setting": "[1]; day 10, wt mice, B16 melanoma, 50 mg/kg ip daily", "value": "clearly smaller"},
      {"measurement": "tumor growth", "setting": "[1]; wt mice, s.c. B16 melanoma, 50 mg/kg ip daily vs vehicle, FIG. 2B", "value": "significant decrease in tumor growth"},
      {"measurement": "number of CD31+ positive (new) vessels in the tumor", "setting": "[2]", "value": "significantly fewer"},
      {"measurement": "number of MDSC in the melanomas", "setting": "[3]", "value": "strongly reduced"},
      {"measurement": "tumor growth (lymphoma volume)", "setting": "EL-4 lymphoma cells", "value": "strongly inhibited tumor growth"}
    ]}
  ]
}
